Data reported in US20240150377A1, “MODULATORS OF CYSTIC FIBROSIS TRANSMEMBRANE CONDUCTANCE REGULATOR” (VERTEX PHARMACEUTICALS INCORPORATED, priority 2020, published 2024).

These compounds were tested against T1, CFTR (Homo sapiens, UniProt P13569, DEL508-508) (assay: HBE assay: Ussing chamber assay of CFTR-mediated short-circuit currents). Settings: Table 12; at 10 μM; read-out: HBE Activity at 10 μM (%).
T1 construct: endogenous in cells; host or cells: primary human bronchial epithelial cells from CF subjects (F508del/MF-HBE), differentiated at air-liquid interface
Format: cell-based
How it was run: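 CFTR-mediated Isc (μA/cm²) equals the peak response to apical 20 μM forskolin minus the residual after a 20 μM each BPO/GlyH-101/CFTR inhibitor 172 cocktail, recorded in Ussing chambers at Vhold 0 mV, 37 °C, pH 7.4, with 30 μM apical amiloride. Cells were F508del/MF HBE cultures preincubated 18-24 h with corrector (concentration range or 10 μM) plus 1 μM ivacaftor in 20% human serum.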

T1 sequence (P13569 with tags, fused parts or gaps DEL508-508): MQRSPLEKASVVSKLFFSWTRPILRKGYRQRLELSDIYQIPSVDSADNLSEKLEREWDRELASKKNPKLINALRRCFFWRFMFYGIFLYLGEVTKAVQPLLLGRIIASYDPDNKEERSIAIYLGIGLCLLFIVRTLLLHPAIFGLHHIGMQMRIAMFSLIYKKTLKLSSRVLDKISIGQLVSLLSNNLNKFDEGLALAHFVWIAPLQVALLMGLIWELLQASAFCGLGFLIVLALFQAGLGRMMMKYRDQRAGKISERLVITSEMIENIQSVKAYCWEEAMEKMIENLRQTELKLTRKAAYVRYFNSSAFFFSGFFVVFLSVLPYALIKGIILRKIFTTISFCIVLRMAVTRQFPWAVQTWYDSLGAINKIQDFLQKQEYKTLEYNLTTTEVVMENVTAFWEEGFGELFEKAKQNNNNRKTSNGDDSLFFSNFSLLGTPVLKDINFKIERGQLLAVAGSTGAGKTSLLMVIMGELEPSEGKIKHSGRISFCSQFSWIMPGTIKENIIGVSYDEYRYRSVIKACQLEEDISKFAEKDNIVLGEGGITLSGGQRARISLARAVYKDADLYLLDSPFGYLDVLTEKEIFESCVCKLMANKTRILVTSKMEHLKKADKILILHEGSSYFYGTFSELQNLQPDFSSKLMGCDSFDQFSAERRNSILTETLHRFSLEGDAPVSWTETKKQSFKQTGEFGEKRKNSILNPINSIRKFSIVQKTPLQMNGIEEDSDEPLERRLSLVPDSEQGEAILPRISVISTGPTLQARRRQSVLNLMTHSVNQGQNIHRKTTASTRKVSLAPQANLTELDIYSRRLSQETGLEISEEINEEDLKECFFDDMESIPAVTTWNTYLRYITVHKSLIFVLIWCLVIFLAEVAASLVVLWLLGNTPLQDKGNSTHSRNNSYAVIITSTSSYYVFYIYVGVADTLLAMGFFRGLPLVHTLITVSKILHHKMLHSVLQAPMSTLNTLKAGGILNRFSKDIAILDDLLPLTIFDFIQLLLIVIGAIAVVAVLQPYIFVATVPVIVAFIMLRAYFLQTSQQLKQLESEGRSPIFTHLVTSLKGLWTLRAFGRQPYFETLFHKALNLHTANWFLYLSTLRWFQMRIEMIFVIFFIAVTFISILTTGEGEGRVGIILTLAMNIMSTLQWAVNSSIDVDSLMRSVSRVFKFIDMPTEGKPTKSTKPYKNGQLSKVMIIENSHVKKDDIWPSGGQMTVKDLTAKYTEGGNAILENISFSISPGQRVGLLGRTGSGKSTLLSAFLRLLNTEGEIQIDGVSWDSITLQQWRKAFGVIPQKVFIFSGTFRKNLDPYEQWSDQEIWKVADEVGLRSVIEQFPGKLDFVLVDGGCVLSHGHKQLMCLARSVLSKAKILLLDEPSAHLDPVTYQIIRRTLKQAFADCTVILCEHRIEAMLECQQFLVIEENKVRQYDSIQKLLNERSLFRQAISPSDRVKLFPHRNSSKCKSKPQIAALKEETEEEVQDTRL

Row | SMILES | activation at 10 µM [%]
1 | Cc1cccc(C)c1-c1cc2nc(n1)NS(=O)(=O)c1cccc(c1)C(=O)N(Cc1ncc(C(C)(C)C)s1)[C@H](CC(C)(C)C)CO2 [Compound 174] | > 600
2 | Cc1cccnc1CNC(=O)CN1C(=O)c2cccc(c2)S(=O)(=O)Nc2nc(cc(-c3c(C)cccc3C)n2)OC[C@H]1CC(C)(C)C [Compound 215] | > 600
3 | Cc1cccc(C)c1-c1cc2nc(n1)NS(=O)(=O)c1cccc(c1)C(=O)N(CC(=O)NCc1cnccn1)[C@H](CC(C)(C)C)CO2 [Compound 216] | > 600
4 | Cc1ccccc1CNC(=O)CN1C(=O)c2cccc(c2)S(=O)(=O)Nc2nc(cc(-c3c(C)cccc3C)n2)OC[C@H]1CC(C)(C)C [Compound 217] | > 600
5 | Cc1ccnc(CNC(=O)CN2C(=O)c3cccc(c3)S(=O)(=O)Nc3nc(cc(-c4c(C)cccc4C)n3)OC[C@H]2CC(C)(C)C)c1 [Compound 218] | > 600

Same assay, conditions: Table 12; read-out: HBE EC50

Row | SMILES | EC50 [µM]
6 | Cc1cccc(C)c1-c1cc2nc(n1)NS(=O)(=O)c1cccc(c1)C(=O)N(CC(=O)N(C)Cc1ccccn1)[C@H](CC(C)(C)C)CO2 [Compound 221] | < 1

Same assay, conditions: Table 12; read-out: HBE Max Activity (%)

Row | SMILES | Emax [%]
7 | Cc1cccc(C)c1-c1cc2nc(n1)NS(=O)(=O)c1cccc(c1)C(=O)N(CC(=O)N(C)Cc1ccccn1)[C@H](CC(C)(C)C)CO2 [Compound 221] | > 60

Same assay, conditions: Table 13; at 10 μM; read-out: HBE Activity at 10 μM (%)

Row | SMILES | activation at 10 µM [%]
8 | Cc1cccc(C)c1-c1cc2nc(n1)NS(=O)(=O)c1cccc(c1)C(=O)N(CC(=O)NC1CCC13CCC3)[C@H](CC(C)(C)C)CO2 (stereo partly drawn) [Compound 173] | > 600
9 | Cc1cccc(C)c1-c1cc2nc(n1)NS(=O)(=O)c1cccc(c1)C(=O)N(CC(=O)NC1CCCC(C)(C)C1)[C@H](CC(C)(C)C)CO2 (stereo partly drawn) [Compound 175] | > 600
10 | Cc1cccc(C)c1-c1cc2nc(n1)NS(=O)(=O)c1cccc(c1)C(=O)N(CC(=O)N1CCCCC1c1ccccc1F)[C@H](CC(C)(C)C)CO2 (stereo partly drawn) [Compound 176] | > 600
11 | Cc1cccc(C)c1-c1cc2nc(n1)NS(=O)(=O)c1cccc(c1)C(=O)N(CC(=O)N1CCCCC1c1ccc(F)cc1)[C@H](CC(C)(C)C)CO2 (stereo partly drawn) [Compound 177] | > 600
12 | Cc1cccc(C)c1-c1cc2nc(n1)NS(=O)(=O)c1cccc(c1)C(=O)N(CC(=O)NC1CCCCC1(C)C)[C@H](CC(C)(C)C)CO2 (stereo partly drawn) [Compound 178] | > 600
13 | Cc1cccc(C)c1-c1cc2nc(n1)NS(=O)(=O)c1cccc(c1)C(=O)N(CC(=O)NC1CCC(C)(C)CC1)[C@H](CC(C)(C)C)CO2 [Compound 179] | > 600
14 | Cc1cccc(C)c1-c1cc2nc(n1)NS(=O)(=O)c1cccc(c1)C(=O)N(CC(=O)N1CCC[C@@H](c3ccccc3)C1)[C@H](CC(C)(C)C)CO2 [Compound 180] | > 600
15 | Cc1cccc(C)c1-c1cc2nc(n1)NS(=O)(=O)c1cccc(c1)C(=O)N(CC(=O)N1C[C@H](C)C[C@H](C)C1)[C@H](CC(C)(C)C)CO2 [Compound 181] | > 600
16 | Cc1cccc(C)c1-c1cc2nc(n1)NS(=O)(=O)c1cccc(c1)C(=O)N(CC(=O)N(C)C1CCOCC1)[C@H](CC(C)(C)C)CO2 [Compound 182] | > 600
17 | Cc1cccc(C)c1-c1cc2nc(n1)NS(=O)(=O)c1cccc(c1)C(=O)N(CC(=O)N1CCC3(CCCC3)CC1)[C@H](CC(C)(C)C)CO2 [Compound 183] | > 600
18 | Cc1cccc(C)c1-c1cc2nc(n1)NS(=O)(=O)c1cccc(c1)C(=O)N(CC(=O)N1CCC[C@@H](C)C1)[C@H](CC(C)(C)C)CO2 [Compound 184] | > 600
19 | Cc1cccc(C)c1-c1cc2nc(n1)NS(=O)(=O)c1cccc(c1)C(=O)N(CC(=O)N1C[C@H](C)O[C@@H](C)C1)[C@H](CC(C)(C)C)CO2 [Compound 185] | > 600
20 | Cc1cccc(C)c1-c1cc2nc(n1)NS(=O)(=O)c1cccc(c1)C(=O)N(CC(=O)N1CCC(N(C)C)CC1)[C@H](CC(C)(C)C)CO2 [Compound 186] | > 600
21 | Cc1cccc(C)c1-c1cc2nc(n1)NS(=O)(=O)c1cccc(c1)C(=O)N(CC(=O)N1CCN(C(C)C)CC1)[C@H](CC(C)(C)C)CO2 [Compound 187] | > 600
22 | Cc1cccc(C)c1-c1cc2nc(n1)NS(=O)(=O)c1cccc(c1)C(=O)N(CC(=O)N1CCCC1c1ccccc1)[C@H](CC(C)(C)C)CO2 (stereo partly drawn) [Compound 188] | > 600
23 | Cc1cccc(C)c1-c1cc2nc(n1)NS(=O)(=O)c1cccc(c1)C(=O)N(CC(=O)NC1CCOCC1)[C@H](CC(C)(C)C)CO2 [Compound 189] | > 600
24 | Cc1cccc(C)c1-c1cc2nc(n1)NS(=O)(=O)c1cccc(c1)C(=O)N(CC(=O)N1[C@H](C)CCC[C@@H]1C)[C@H](CC(C)(C)C)CO2 [Compound 190] | > 600
25 | Cc1cccc(C)c1-c1cc2nc(n1)NS(=O)(=O)c1cccc(c1)C(=O)N(CC(=O)N1CCC(c3ccccc3)C1)[C@H](CC(C)(C)C)CO2 (stereo partly drawn) [Compound 191] | > 600
26 | CCC1CCC(NC(=O)CN2C(=O)c3cccc(c3)S(=O)(=O)Nc3nc(cc(-c4c(C)cccc4C)n3)OC[C@H]2CC(C)(C)C)CC1 (stereo partly drawn) [Compound 192] | > 600
27 | Cc1cccc(C)c1-c1cc2nc(n1)NS(=O)(=O)c1cccc(c1)C(=O)N(CC(=O)N(C)CC1CCCOC1)[C@H](CC(C)(C)C)CO2 (stereo partly drawn) [Compound 193] | > 600
28 | Cc1cccc(C)c1-c1cc2nc(n1)NS(=O)(=O)c1cccc(c1)C(=O)N(CC(=O)N[C@H]1CC[C@H](C)CC1)[C@H](CC(C)(C)C)CO2 [Compound 194] | > 600
29 | Cc1cccc(C)c1-c1cc2nc(n1)NS(=O)(=O)c1cccc(c1)C(=O)N(CC(=O)N1CCC[C@H](c3ccccc3)C1)[C@H](CC(C)(C)C)CO2 [Compound 195] | > 600

Row | SMILES | activation at 10 µM [%]
30 | Cc1cccc(C)c1-c1cc2nc(n1)NS(=O)(=O)c1cccc(c1)C(=O)N(CC(=O)N1CCCCC1c1ccccc1)[C@H](CC(C)(C)C)CO2 (stereo partly drawn) [Compound 196] | > 600
31 | Cc1cccc(C)c1-c1cc2nc(n1)NS(=O)(=O)c1cccc(c1)C(=O)N(CC(=O)N1CCOCC1)[C@H](CC(C)(C)C)CO2 [Compound 197] | > 600
32 | Cc1cccc(C)c1-c1cc2nc(n1)NS(=O)(=O)c1cccc(c1)C(=O)N(CC(=O)NC1CCCC1)[C@H](CC(C)(C)C)CO2 [Compound 198] | > 600
33 | Cc1cccc(C)c1-c1cc2nc(n1)NS(=O)(=O)c1cccc(c1)C(=O)N(CC(=O)N1C[C@@H](C)O[C@@H](C)C1)[C@H](CC(C)(C)C)CO2 [Compound 199] | > 600
34 | Cc1cccc(C)c1-c1cc2nc(n1)NS(=O)(=O)c1cccc(c1)C(=O)N(CC(=O)N1CCCCC1)[C@H](CC(C)(C)C)CO2 [Compound 200] | > 600
35 | Cc1cccc(C)c1-c1cc2nc(n1)NS(=O)(=O)c1cccc(c1)C(=O)N(CC(=O)N1CCC(OC(C)C)C1)[C@H](CC(C)(C)C)CO2 (stereo partly drawn) [Compound 201] | > 600
36 | Cc1cccc(C)c1-c1cc2nc(n1)NS(=O)(=O)c1cccc(c1)C(=O)N(CC(=O)N1C[C@@H](C)[C@@H](C)C1)[C@H](CC(C)(C)C)CO2 [Compound 202] | > 600
37 | Cc1cccc(C)c1-c1cc2nc(n1)NS(=O)(=O)c1cccc(c1)C(=O)N(CC(=O)N1CCC(c3ccccc3)CC1)[C@H](CC(C)(C)C)CO2 [Compound 203] | > 600
38 | Cc1cccc(C)c1-c1cc2nc(n1)NS(=O)(=O)c1cccc(c1)C(=O)N(CC(=O)N1C[C@H](C)CC1(C)C)[C@H](CC(C)(C)C)CO2 [Compound 204] | > 600
39 | Cc1cccc(C)c1-c1cc2nc(n1)NS(=O)(=O)c1cccc(c1)C(=O)N(CC(=O)NC1CCCCC1)[C@H](CC(C)(C)C)CO2 [Compound 205] | > 600
40 | Cc1cccc(C)c1-c1cc2nc(n1)NS(=O)(=O)c1cccc(c1)C(=O)N(CC(=O)N1CCc3c(Cl)nc(C(F)(F)F)nc3C1)[C@H](CC(C)(C)C)CO2 [Compound 206] | 30 to 60
41 | Cc1cccc(C)c1-c1cc2nc(n1)NS(=O)(=O)c1cccc(c1)C(=O)N(CC(=O)N1CCc3ccccc3C1)[C@H](CC(C)(C)C)CO2 [Compound 207] | > 600
42 | Cc1cccc(C)c1-c1cc2nc(n1)NS(=O)(=O)c1cccc(c1)C(=O)N(CC(=O)N1CCC(C)(C)CC1)[C@H](CC(C)(C)C)CO2 [Compound 208] | > 600
43 | Cc1ccc2c(c1)CCN(C(=O)CN1C(=O)c3cccc(c3)S(=O)(=O)Nc3nc(cc(-c4c(C)cccc4C)n3)OC[C@H]1CC(C)(C)C)C2 [Compound 209] | > 600
44 | Cc1cccc(C)c1-c1cc2nc(n1)NS(=O)(=O)c1cccc(c1)C(=O)N(CC(=O)N1CCC(C(C)(C)C)CC1)[C@H](CC(C)(C)C)CO2 [Compound 210] | > 600
45 | Cc1cccc(C)c1-c1cc2nc(n1)NS(=O)(=O)c1cccc(c1)C(=O)N(CC(=O)N1CCc3ccccc3C1C)[C@H](CC(C)(C)C)CO2 (stereo partly drawn) [Compound 211] | > 600
46 | Cc1cccc(C)c1-c1cc2nc(n1)NS(=O)(=O)c1cccc(c1)C(=O)N(CC(=O)N1CCOCC1C(C)C)[C@H](CC(C)(C)C)CO2 (stereo partly drawn) [Compound 212] | > 600
47 | Cc1cccc(C)c1-c1cc2nc(n1)NS(=O)(=O)c1cccc(c1)C(=O)N(CC(=O)N1CCCC1(C)C)[C@H](CC(C)(C)C)CO2 [Compound 213] | > 600
48 | Cc1cccc(C)c1-c1cc2nc(n1)NS(=O)(=O)c1cccc(c1)C(=O)N(CC(=O)N1CCOCC1(C)C)[C@H](CC(C)(C)C)CO2 [Compound 214] | > 600
49 | Cc1cccc(C)c1-c1cc2nc(n1)NS(=O)(=O)c1cccc(c1)C(=O)N(CC(=O)NCc1ccccc1)[C@H](CC(C)(C)C)CO2 [Compound 219] | > 600
50 | Cc1cccc(C)c1-c1cc2nc(n1)NS(=O)(=O)c1cccc(c1)C(=O)N(CC(=O)NCc1ccccn1)[C@H](CC(C)(C)C)CO2 [Compound 220] | > 600
51 | Cc1cccc(C)c1-c1cc2nc(n1)NS(=O)(=O)c1cccc(c1)C(=O)N(CC(=O)N(C)CC1CCOCC1)[C@H](CC(C)(C)C)CO2 [Compound 223] | > 600
